Measurements: US11174251B2, “Compositions and methods for inhibition of the JAK pathway” (Rigel Pharmaceuticals, Inc., priority 2010, dated 2021)
Counter-ions that a name gives are not always drawn.

What follows are molecules tested against T1, JAK3 (Homo sapiens, UniProt P52333) (assay: Assay for CD23 expression on Ramos B-cells stimulated by IL-4 (Table IV: ability to inhibit JAK3 activity)). Conditions: tested under conditions described in Example 3 (so in the source).
T1 construct: The Ramos B-cell line was acquired from ATCC (ATCC Catalog No. CRL-1596); host or cells: Ramos B-cell line (human)
T1 sequence (P52333 1-1124): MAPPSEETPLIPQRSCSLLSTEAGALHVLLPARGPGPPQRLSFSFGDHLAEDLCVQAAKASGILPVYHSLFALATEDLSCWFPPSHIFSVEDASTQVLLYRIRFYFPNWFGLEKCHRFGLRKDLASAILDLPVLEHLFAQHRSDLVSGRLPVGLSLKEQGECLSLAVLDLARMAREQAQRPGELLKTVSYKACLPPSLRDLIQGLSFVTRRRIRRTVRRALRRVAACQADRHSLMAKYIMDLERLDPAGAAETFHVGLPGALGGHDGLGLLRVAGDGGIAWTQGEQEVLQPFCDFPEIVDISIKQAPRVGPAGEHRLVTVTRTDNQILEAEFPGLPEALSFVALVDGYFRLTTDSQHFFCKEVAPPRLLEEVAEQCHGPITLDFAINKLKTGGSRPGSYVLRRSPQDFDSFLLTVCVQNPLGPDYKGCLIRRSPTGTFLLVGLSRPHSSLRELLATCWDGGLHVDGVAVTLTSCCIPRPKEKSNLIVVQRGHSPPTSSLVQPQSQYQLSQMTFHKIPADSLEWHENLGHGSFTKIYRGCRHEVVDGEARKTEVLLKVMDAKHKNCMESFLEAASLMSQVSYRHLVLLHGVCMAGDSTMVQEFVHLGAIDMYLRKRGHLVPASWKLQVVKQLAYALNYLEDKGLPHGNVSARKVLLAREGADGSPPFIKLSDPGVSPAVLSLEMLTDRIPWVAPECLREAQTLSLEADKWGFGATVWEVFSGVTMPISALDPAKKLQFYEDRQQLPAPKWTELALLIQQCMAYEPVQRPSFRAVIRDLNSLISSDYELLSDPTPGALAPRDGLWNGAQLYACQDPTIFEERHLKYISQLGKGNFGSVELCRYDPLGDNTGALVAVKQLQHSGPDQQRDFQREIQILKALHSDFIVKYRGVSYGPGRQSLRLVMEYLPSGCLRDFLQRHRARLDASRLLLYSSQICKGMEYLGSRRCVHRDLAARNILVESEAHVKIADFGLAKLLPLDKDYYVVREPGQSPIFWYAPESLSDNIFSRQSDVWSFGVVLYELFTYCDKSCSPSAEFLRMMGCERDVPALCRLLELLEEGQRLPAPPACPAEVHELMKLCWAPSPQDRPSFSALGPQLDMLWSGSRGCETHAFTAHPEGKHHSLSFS
Format: cell-based
Text: One means of assaying for such inhibition is detection of the effect of the 2,4-pyrimidinediamine compounds on the upregulation of downstream gene products. In the Ramos/IL4 assay, B-cells are stimulated with the cytokine Interleukin-4 (IL-4) leading to the activation of the JAK/Stat pathway through phosphorylation of the JAK family kinases, JAK1 and JAK3, which in turn phosphorylate and activate the transcription factor Stat-6. […] To study the effect of inhibitors (for example, the 2,4-substituted pyrimindinediamine compounds described herein) on the JAK1 and JAK3 kinases, human Ramos B cells are stimulated with human IL-4. 20 to 24 hours post stimulation, cells are stained for upregulation of CD23 and analyzed using FACS.
B-cells stimulated with cytokine Interleukin-4 (IL-4) activate the JAK/Stat pathway through phosphorylation of the JAK family kinases, JAK-1 and JAK-3, which in turn phosphorylate and activate the transcription factor Stat-6. […] To study the effect of inhibitors on the JAK family kinases, human Ramos B cells were stimulated with human IL-4 and the surface expression of CD23 was measured.
The day before the experiment, Ramos B-cells were diluted to 3.5×10^5 cells/mL to ensure that they were in a logarithmic growth phase.
Cells were spun down and suspended in RPMI with 5% serum. 5×10^4 cells were used per point in a 96-well tissue culture plate. Cells were pre-incubated with compound or DMSO (Sigma-Aldrich, St. Louis, Mo., Cat No. D2650) vehicle control for 1 hour in a 37° C. incubator. Cells were then stimulated with IL-4 (Peprotech Inc., Rocky Hill, N.J., Cat No. 200-04) for a final concentration of 50 units/mL for 20-24 hours. […] Detection was performed using a BD LSR I System Flow Cytometer, purchased from Becton Dickinson Biosciences of San Jose, Calif.
The compound designations in Table IV are consistent with those of Tables I-II above.

| Structure (SMILES) | IC50 |
| --- | --- |
| NC(=O)c1ccc(Nc2nccc(Nc3ccc4oc(=O)[nH]c4c3)n2)cc1 [Compound I-2, 4-(4-(2-oxo-2,3-dihydrobenzo[d]oxazol-5-ylamino)pyrimidin-2-ylamino)benzamide trifluoroacetate salt] | < 0.5 µM |
| NC(=O)c1cccc(Nc2nccc(Nc3ccc4oc(=O)[nH]c4c3)n2)c1 [Compound I-3, 3-(4-(2-oxo-2,3-dihydrobenzo[d]oxazol-5-ylamino)pyrimidin-2-ylamino)benzamide trifluoroacetate salt] | 0.5 to 5 µM |
| COc1c(F)ccc(Nc2ncc(Cl)c(Nc3ccc4oc(=O)[nH]c4c3)n2)c1F [Compound I-7, 5-(5-chloro-2-(2,4-difluoro-3-methoxyphenylamino)pyrimidin-4-ylamino)benzo[d]oxazol-2(3H)-one trifluoroacetate salt] | < 0.5 µM |
| O=c1[nH]c2cc(Nc3nc(Nc4cc(F)cc(Cl)c4)ncc3Cl)ccc2o1 [Compound I-8, 5-(5-chloro-2-(3-chloro-5-fluorophenylamino)pyrimidin-4-ylamino)benzo[d]oxazol-2(3H)-one formate salt] | < 0.5 µM |
| NC(=O)c1ccc(Nc2ncc(Cl)c(Nc3ccc4oc(=O)[nH]c4c3)n2)cc1 [Compound I-11, 4-(5-chloro-4-(2-oxo-2,3-dihydrobenzo[d]oxazol-5-ylamino)pyrimidin-2-ylamino)benzamide trifluoroacetate salt] | < 0.5 µM |
| COc1cc(Nc2ncc(Cl)c(Nc3ccc4oc(=O)[nH]c4c3)n2)cc(C(F)(F)F)c1 [Compound I-12, 5-(5-chloro-2-(3-methoxy-5-(trifluoromethyl)phenylamino)pyrimidin-4-ylamino)benzo[d]oxazol-2(3H)-one] | < 0.5 µM |
| O=c1[nH]c2cc(Nc3ccnc(Nc4cc(F)cc(F)c4)n3)ccc2o1 [Compound I-13, 5-(2-(3,5-difluorophenylamino)pyrimidin-4-ylamino)benzo[d]oxazol-2(3H)-one trifluoroacetate salt] | 0.5 to 5 µM |

Results, then the molecule that gave them:

| IC50 | Structure (SMILES) |
| --- | --- |
| < 0.5 µM | Cc1ccc(Nc2ncc(F)c(Nc3ccc4oc(=O)[nH]c4c3)n2)cc1C#N [Compound I-1, 5-(5-fluoro-4-(2-oxo-2,3-dihydrobenzo[d]oxazol-5-ylamino)pyrimidin-2-ylamino)-2-methylbenzonitrile formate salt] |
| < 0.5 µM | O=c1[nH]c2cc(Nc3nc(Nc4ccccc4)ncc3Cl)ccc2o1 [Compound I-4, 5-(5-chloro-2-(phenylamino)pyrimidin-4-ylamino)benzo[d]oxazol-2(3H)-one trifluoroacetate salt] |
| < 0.5 µM | Cc1ccc(Nc2ncc(Cl)c(Nc3ccc4oc(=O)[nH]c4c3)n2)cc1C [Compound I-5, 5-(5-chloro-2-(3,4-dimethylphenylamino)pyrimidin-4-ylamino)benzo[d]oxazol-2(3H)-one trifluoroacetate salt] |
| > 10 µM | Cc1cc(Nc2ncc(Cl)c(Nc3ccc4oc(=O)[nH]c4c3)n2)cc(C)c1C [Compound I-6, 5-(5-chloro-2-(3,4,5-trimethylphenylamino)pyrimidin-4-ylamino)benzo[d]oxazol-2(3H)-one trifluoroacetate salt] |
| < 0.5 µM | Cc1ccc(Nc2ncc(Cl)c(Nc3ccc4oc(=O)[nH]c4c3)n2)cc1C(F)(F)F [Compound I-9, 5-(5-chloro-2-(4-methyl-3-(trifluoromethyl)phenylamino)pyrimidin-4-ylamino)benzo[d]oxazol-2(3H)-one] |
| < 0.5 µM | Cc1cc(C)cc(Nc2ncc(Cl)c(Nc3ccc4oc(=O)[nH]c4c3)n2)c1 [Compound I-10, 5-(5-chloro-2-(3,5-dimethylphenylamino)pyrimidin-4-ylamino)benzo[d]oxazol-2(3H)-one trifluoroacetate salt] |
| < 0.5 µM | O=c1[nH]c2cc(Nc3nc(Nc4cc(F)cc(F)c4)ncc3Cl)ccc2o1 [Compound I-14, 5-(5-chloro-2-(3,5-difluorophenylamino)pyrimidin-4-ylamino)benzo[d]oxazol-2(3H)-one trifluoroacetate salt] |
